Measurements: paper PMC10653753 (Emerging Microbes & Infections, 2023)
Read-outs that look alike come from different tables or passages of the source.

Tests used:
CHIKV [1] = settings: read-out: 50% inhibitory concentration against CHIKV; Huh-7 cells; cited from earlier work
[2] = monkeys, 500 mg/kg; cited from earlier work
CHIKV [3] = settings: Vero cells, cited from earlier work
CHIKV [4] = test: Cell-based antiviral efficacy in CHIKV-infected Vero cells, plaque titration; settings: Chikungunya virus, 72 h, read-out: EC50, CHIKV replication

O=c1cc(-c2ccccc2)oc2cc(O)c(O)c(O)c12 [baicalein]
IC50 (CHIKV [1]): 16.9 µM
Toxicity throughout the pharmacokinetic study [2]: no apparent toxicity
50% inhibitory concentration against CHIKV (CHIKV [3]): 1.891 µg/mL
IC50 (CHIKV [3]; read-out: 50% inhibitory concentration against CHIKV): 7 µM
EC50 (CHIKV [4]): 0.52 ± 0.06 µM
